Active and inactive are the calls of the source. The calls are words filed in the database; no cut-off is given here.

In data set [1] the test system is HaCaT. Description: Induction of wound healing in human HacaT cells assessed as increase in ACTC1 mRNA level at 12.5 uM by RT-PCR analysis. Type of data set: functional, cell-based.
Data set [2] in a line: Induction of cell invasion in human HacaT cells at 12.5 uM measured after 24 hrs by transwell assay. Type of data set: functional.
The subject of data set [3] is HaCaT. Description: Induction of wound healing in human HacaT cells assessed as increase in COL1A2 mRNA level at 12.5 uM by RT-PCR analysis. Type of data set: functional, cell-based.
Data set [4] has as its system HaCaT. The data set can be described thus: Cytotoxicity against human HacaT cells assessed as cell viability at 3.12 to 50 uM measured after 48 hrs by MTT assay. The format is cell-based. The conditions noted are these: dose 3.12-50 µM. For orientation: Formazan colour is commonly taken as a measure of viable cells.
In data set [5] the test system is NIH3T3. Description: Induction of wound healing in mouse NIH3T3 cells assessed as increase in COL1A2 mRNA level at 12.5 uM by RT-PCR analysis. Type of data set: functional, cell-based.
Data set [6] has as its system HaCaT. The data set can be described thus: Induction of cell migration in human HacaT cells at 12.5 uM measured after 24 hrs by transwell assay. The format is functional.
Data set [7] concerns NIH3T3. Description: Induction of cell migration in mouse NIH3T3 cells at 12.5 uM measured after 24 hrs by transwell assay. Type of data set: functional.
Data set [8] concerns NIH3T3. The data set can be described thus: Induction of wound healing in mouse NIH3T3 cells assessed as increase in ACTC1 mRNA level at 12.5 uM by RT-PCR analysis. Type of data set: functional, cell-based.
The next data set relates to Caco-2. Description: Cytotoxicity against human Caco-2 cells assessed as cell viability at 3.12 to 50 uM measured after 48 hrs by MTT assay. The format is functional, cell-based. The conditions noted are these: dose 3.12-50 µM.
The next data set is filed under the species Mus musculus. The data set can be described thus: Induction of wound healing in BALB/c mouse assessed as reduction in wound area after 6 days. The conditions noted are these: time 6.0 day. The format is functional, organism-based.
Data set [9] in a line: Induction of cell invasion in mouse NIH3T3 cells at 12.5 uM measured after 24 hrs by transwell assay. Type of data set: functional.
Data set [10] concerns NIH3T3. The data set can be described thus: Cytotoxicity against mouse NIH3T3 cells assessed as cell viability at 3.12 to 50 uM measured after 48 hrs by MTT assay. Type of data set: cell-based. The conditions noted are these: nih3t3, 48 h, dose 3.12-50 µM.

As for `CC(C)[C@@H]1NC(=O)[C@@H](C(C)C)OC(=O)[C@H](C)N(C)C(=O)[C@H](Cc2ccccc2)NC(=O)[C@H](Cc2ccccc2)N(C)C1=O`, the result in the data set with HaCaT [1], in the data set with HaCaT [3], with NIH3T3 [5], with NIH3T3 [8] and in the data set filed under Mus musculus was Active. Also, the Activity in data set [2] is given as 50%; with HaCaT [4], “Non-Toxic”; with HaCaT [6] it was 50%; with NIH3T3 [7] it was 50%; in data set [9], 50%; in the data set with NIH3T3 [10] it was “Non-Toxic”. Further, the outcome in the data set on Caco-2 was inactive.

The values are drawn from ChEMBL document CHEMBL5053498, “Acremonamide, a Cyclic Pentadepsipeptide with Wound-Healing Properties Isolated from a Marine-Derived Fungus of the Genus Acremonium” (J Nat Prod, 2021).
